This is an account of results in PubChem BioAssay (NCI).

Among the test systems are SR leukemia; HCC-2998 colon; OVCAR-4 ovarian; CAKI-1 renal; SF-268 CNS; SK-MEL-28 melanoma; HCT-15 colon; NCI-H226 lung; CCRF-CEM leukemia; RPMI-8226 leukemia.
Common to all, as to assay: DTP human tumour cell line panel, 48 h

Structures are written as SMILES. Where “and” joins values, the source holds several entries; their conditions need not be identical. Equal entries are not always repeated.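 Exposure lasted 48 hours, with cells grown in 96-well plates and compounds tested at five concentrations. GI50: concentration for 50% inhibition of growth. Definition used: TGI = concentration required for complete inhibition of growth.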

For `O=C(c1ccco1)c1c(C(F)(F)F)nc2ccc(C(F)(F)F)cc2[n+]1[O-]`, the GI50 (commonly the concentration that inhibits growth by half) was > 91.7 µM in the experiment with SR leukemia; 57.6 µM in the experiment with HCC-2998 colon; 24.1 µM in the experiment with OVCAR-4 ovarian; 24.5 µM with CAKI-1 renal; 33.3 µM in the experiment with SF-268 CNS; 25.2 µM in the experiment with SK-MEL-28 melanoma. Also, the results for the GI50 in the experiment on HCT-15 colon, in the experiment with NCI-H226 lung and with RPMI-8226 leukemia were > 86.9 µM, 32.1 µM and > 100 µM, respectively. Besides, the TGI (as a rule, the concentration giving total growth inhibition) in the experiment on SR leukemia is > 100 µM; in the experiment on HCC-2998 colon it was > 100 µM; with OVCAR-4 ovarian it was 68.6 µM; with CAKI-1 renal, > 83.2 µM; with SF-268 CNS, 99.5 µM; with SK-MEL-28 melanoma it was 80.6 µM. The TGI was > 100 µM in the experiment on HCT-15 colon, > 100 µM with NCI-H226 lung, > 49.4 µM with CCRF-CEM leukemia and > 100 µM with RPMI-8226 leukemia.
Turning to `O=C1CCCCC=C1C[N+](=O)[O-]`, the GI50 was 3.7 µM in the experiment with SR leukemia; 20.5 µM in the experiment with HCC-2998 colon; 21.4 µM with OVCAR-4 ovarian; 17.9 µM in the experiment on CAKI-1 renal; 30.8 µM in the experiment on SF-268 CNS; 28.5 µM in the experiment on SK-MEL-28 melanoma. The GI50 is 13.5 µM in the experiment with HCT-15 colon, 26 µM with NCI-H226 lung, 5.7 µM with CCRF-CEM leukemia and 25.5 µM in the experiment on RPMI-8226 leukemia. The TGI was 12.3 µM in the experiment on SR leukemia; 43.6 µM with HCC-2998 colon; 46 µM in the experiment on OVCAR-4 ovarian; 45.8 µM in the experiment with CAKI-1 renal; > 100 µM with SF-268 CNS; 92 µM with SK-MEL-28 melanoma. Further, the TGI with HCT-15 colon came out at 35.8 µM; in the experiment on NCI-H226 lung it was 73.3 µM; in the experiment with CCRF-CEM leukemia, 23.3 µM; in the experiment on RPMI-8226 leukemia, 58.5 µM.
For `CCN(Cc1ccccc1Cl)c1ccc(CO)c(Cl)c1`, the GI50 was 17.3 µM with SR leukemia; 11.9 µM with HCC-2998 colon; 0.368 µM in the experiment on OVCAR-4 ovarian; 5.82 µM in the experiment on CAKI-1 renal; 15.5 µM in the experiment with SF-268 CNS; 11.8 µM in the experiment on SK-MEL-28 melanoma. The GI50 in the experiment on HCT-15 colon was 10.2 µM; in the experiment with NCI-H226 lung, 0.0295 µM; in the experiment with CCRF-CEM leukemia it was 16.6 µM; with RPMI-8226 leukemia it was 1.91 µM. Further, the TGI in the experiment with SR leukemia is 45.1 µM; in the experiment on HCC-2998 colon, 25.4 µM; with OVCAR-4 ovarian, 9.36 µM; in the experiment with CAKI-1 renal it was 21 µM; in the experiment on SF-268 CNS, 30 µM; with SK-MEL-28 melanoma, 24.7 µM. In addition, the TGI in the experiment with HCT-15 colon was 24 µM; in the experiment on NCI-H226 lung, 0.122 µM; in the experiment with CCRF-CEM leukemia, 38.3 µM; in the experiment with RPMI-8226 leukemia, 19 µM.
`N#Cc1cc([N+](=O)[O-])ccc1NC(=O)C(F)(F)F`: the TGI in the experiment on SR leukemia, with HCC-2998 colon, in the experiment on OVCAR-4 ovarian, with CAKI-1 renal, in the experiment with SF-268 CNS and in the experiment with SK-MEL-28 melanoma was > 100 µM in each case. Also, the TGI with HCT-15 colon is > 58.5 µM; with NCI-H226 lung, > 100 µM; in the experiment with CCRF-CEM leukemia it was > 100 µM; in the experiment with RPMI-8226 leukemia it was > 66.9 µM.
For the compound `CCOc1ccc2c(C)cc(=O)oc2c1`, the total growth inhibition concentration (TGI) in the experiment with SR leukemia, in the experiment on HCC-2998 colon, in the experiment on OVCAR-4 ovarian, in the experiment on CAKI-1 renal, in the experiment on SF-268 CNS and in the experiment with SK-MEL-28 melanoma was > 100 µM throughout. Also, the TGI in the experiment with HCT-15 colon, with NCI-H226 lung, in the experiment with CCRF-CEM leukemia and in the experiment on RPMI-8226 leukemia was > 100 µM in each case.
For `Cc1cc2nc3ccc(=[N+](C)C)cc-3sc2cc1N`, the GI50 in the experiment on SR leukemia was 0.419 µM and 0.544 µM; with HCC-2998 colon, 1.2 µM and 2.12 µM; in the experiment with OVCAR-4 ovarian, 0.21 µM and 0.146 µM; with CAKI-1 renal, 2.3 µM and 1.56 µM; in the experiment on SF-268 CNS, 0.351 µM and 0.956 µM; in the experiment on SK-MEL-28 melanoma, 1.64 µM and 1.65 µM. For the same compound, the GI50 was 0.384 µM and 0.63 µM in the experiment on HCT-15 colon; 2.11 µM and 1.82 µM in the experiment with NCI-H226 lung; 0.279 µM and 0.31 µM with CCRF-CEM leukemia; 0.218 µM and 0.0867 µM in the experiment on RPMI-8226 leukemia. Besides, the TGI in the experiment on HCC-2998 colon is 7.36 µM and 12.2 µM and 10.9 µM; in the experiment with CAKI-1 renal, 12.8 µM and > 55.9 µM and 10.2 µM; in the experiment with SK-MEL-28 melanoma, 4.65 µM and 27 µM and 3.56 µM; with HCT-15 colon it was 10.9 µM and 18.6 µM and 6.98 µM; with NCI-H226 lung, 9.05 µM and 30.9 µM and 7.69 µM.
In the case of `CC(=O)OC12c3ccccc3-c3ccccc3C1C(C(=O)O)C2(Cl)C(=O)O` (stereo not given), the TGI in the experiment on SR leukemia, in the experiment on HCC-2998 colon, with OVCAR-4 ovarian, with CAKI-1 renal, in the experiment on SF-268 CNS and with SK-MEL-28 melanoma was > 10 µM each time. Also, the TGI in the experiment on HCT-15 colon, in the experiment on NCI-H226 lung, in the experiment on CCRF-CEM leukemia and with RPMI-8226 leukemia was > 10 µM in each case.
Consider `C/C(=N\NC(=S)N1CCN(C2CCCCCC2)CC1)c1ccccn1`, for which the TGI was 1.06 µM in the experiment on SR leukemia; 3.3 µM and 2.08 µM in the experiment on HCC-2998 colon; 3.12 µM in the experiment with OVCAR-4 ovarian; 3.5 µM in the experiment with CAKI-1 renal; 5.5 µM in the experiment on SF-268 CNS; 2.25 µM in the experiment with SK-MEL-28 melanoma. The TGI with HCT-15 colon is 3.55 µM and 2.1 µM; with NCI-H226 lung, 2.7 µM; in the experiment on CCRF-CEM leukemia, 0.291 µM and 2.4 µM. Moreover, the GI50 in the experiment on HCC-2998 colon is 1.4 µM; in the experiment on CAKI-1 renal, 0.155 µM; in the experiment with SK-MEL-28 melanoma, 4.08 µM; in the experiment with HCT-15 colon, < 0.001 µM; in the experiment with NCI-H226 lung it was 2.88 µM; in the experiment on CCRF-CEM leukemia, < 0.001 µM. Also, in the experiment with RPMI-8226 leukemia, the GI50 is < 0.001 µM.
Turning to `O=C1C(Nc2ccc(Br)cc2)=C(I)C(=O)c2ncccc21`, the GI50 with SR leukemia is 0.314 µM; in the experiment on HCC-2998 colon, 3.22 µM; in the experiment on OVCAR-4 ovarian it was 0.601 µM; in the experiment on CAKI-1 renal, 0.677 µM; in the experiment with SF-268 CNS, 1.13 µM; in the experiment on SK-MEL-28 melanoma, 1.82 µM. Further, the GI50 in the experiment with HCT-15 colon is 0.588 µM; in the experiment on NCI-H226 lung, 0.988 µM; with CCRF-CEM leukemia it was 0.859 µM; in the experiment on RPMI-8226 leukemia it was 0.836 µM. For the same compound, the TGI with SR leukemia stood at 2.42 µM; with HCC-2998 colon, 10.4 µM; with OVCAR-4 ovarian, 1.24 µM; with CAKI-1 renal it was 1.34 µM; in the experiment with SF-268 CNS, 4.94 µM; in the experiment on SK-MEL-28 melanoma, 6.1 µM. The TGI is 1.79 µM with HCT-15 colon, 2.13 µM in the experiment with NCI-H226 lung, 2.97 µM in the experiment on CCRF-CEM leukemia and 2.12 µM with RPMI-8226 leukemia.
